Test results reported in patent publication US12012404B2, “Pyrimidoheterocyclic compounds and application thereof” (D3 BIO (WUXI) CO., LTD., priority 2020, dated 2024).

Columns and labels:
[1] = test system: human pancreatic cancer Mia PaCa-2 cells; experiment: Pharmacodynamics in vivo in subcutaneously transplanted tumor model of Mia PaCa-2 cells; set-up: species or system Balb/c Nude mice; conditions: day 22 of administration
Experimental: Assay on pharmacodynamics in vivo in a subcutaneously transplanted tumor model of human pancreatic cancer Mia PaCa-2 cells in Balb/c Nude mice
Cell culture: Human pancreatic cancer Mia PaCa-2 cells (ATCC-CRL-1420) were cultured in monolayer in vitro in DMEM medium with 10% fetal calf serum and 2.5% horse serum in a 37° C., 5% carbon dioxide incubator. Cells were passaged by routine digestion with trypsin-EDTA twice a week. When the cell saturation reached 80%-90% and the cell number met the requirement, the cells were harvested, counted, and resuspended in an appropriate amount of PBS. Matrigel was added in a ratio of 1:1 to obtain a cell suspension with a cell density of 25×10^6 cells/mL.
Cell inoculation: 0.2 mL (5×10^6 cells/mouse) of Mia PaCa-2 cells (plus Matrigel, 1:1 by volume) were subcutaneously inoculated into the right back of each mouse. When the average tumor volume reached 190 mm^3, mice were randomized into groups based on tumor volume and administration was initiated according to the protocol in Table 10.
Tumor diameter was measured with vernier caliper twice a week. The calculation formula of tumor volume was: V=0.5a×b^2, where a and b represent the long and short diameters of the tumor, respectively.
The anti-tumor efficacy of compounds was evaluated by TGI (%) or relative tumor proliferation rate T/C (%). Relative tumor proliferation rate T/C (%)=TRTV/CRTV×100% (TRTV: RTV in a treatment group; CRTV: RTV in a negative control group). The relative tumor volume (RTV) was calculated according to results of tumor measurement, and the calculation formula was RTV=Vt/VO, where VO was average tumor volume measured at the time of administration by group (i.e., DO), and Vt was average tumor volume at the time of a certain measurement. For TRTV and CRTV, data on the same day were used.
TGI (%) reflected tumor growth inhibition rate. TGI (%)=[(1−(average tumor volume at the end of administration of a treatment group−average tumor volume at the beginning of administration of the treatment group))/(average tumor volume at the end of treatment of a vehicle control group−average tumor volume at the beginning of treatment of the vehicle control group)]×100%.

[2] = In vitro stability in liver microsomes, CD-1 mice; assay type: in vitro ADME; conditions: CD-1 mice liver microsomes, 0.5 mg/mL
Experimental: Purpose of the assay: Metabolic stabilities of the assay compounds in liver microsomes of CD-1 mice, SD rats, beagle dogs, cynomolgus monkeys, and human were assayed, respectively.
Procedure of the assay: Two 96-well incubation plates were prepared and named T60 incubation plate and NCF60 incubation plate, respectively. 445 μL of microsomal working solutions (liver microsomal protein concentration of 0.56 mg/mL) were added to the T60 incubation plate and the NCF60 incubation plate, respectively, and then the above incubation plates were pre-incubated in a 37° C. water bath for about 10 minutes.
After the pre-incubation, 5 μL of working solutions of the assay sample or the control compound were added to the T60 incubation plate and the NCF60 incubation plate, respectively, and the mixture was mixed well. 50 μL of potassium phosphate buffer was added to each well of the NCF60 incubation plate to initiate the reaction. 180 μL of stop solution (200 ng/mL tolbutamide and 200 ng/mL labetalol in acetonitrile) and 6 uL of NADPH regeneration system working solution were added to the T0 stop plate, and 54 μL of sample was transferred from T60 incubation plate to T0 stop plate (generation of TO sample). The reaction was initiated by adding 44 μL of NADPH regeneration system working solution to each well of the T60 incubation plate. Only 54 μL of microsome working solution, 6 uL of NADPH regeneration system working solution and 180 μL of stop solution were added to the Blank plate. Therefore, in samples of the assay compound or the control compound, the final reaction concentration of compound, testosterone, diclofenac and propafenone was 1 μM, the concentration of liver microsomes was 0.5 mg/mL, and the final reaction concentrations of DMSO and acetonitrile in the reaction system were 0.01% (v/v) and 0.99% (v/v), respectively.
After an appropriate time (e.g., 5, 15, 30, 45 and 60 minutes) of incubation, 180 μL of stop solutions (200 ng/mL tolbutamide and 200 ng/mL labetalol in acetonitrile) were added to the sample wells of each stop plate, respectively. 60 μL of sample was removed from the T60 incubation plate to stop the reaction. All sample plates were shaken well and then centrifuged at 3220×g for 20 minutes. Then 80 μL of supernatant was taken out from each well, and diluted in 240 μL of pure water for liquid chromatography-tandem mass spectrometry analysis. All samples were injected and analyzed by liquid chromatography-tandem mass spectrometry.

C=C(F)C(=O)N1CCN(c2nc(OCC3CCCN3C)nc3c2COC(c2c(F)c(N)cc(C)c2C(F)(F)F)C3)CC1CC#N.Cl (single isomer, unassigned) [Compound 8B hydrochloride]
Average tumor volume ([1]; 10 mg/kg PO QD): 745.84 mm^3
T/C ([1]; 10 mg/kg PO QD): 36.99%
TGI ([1]; 10 mg/kg PO QD): 66.89%
Average tumor volume ([1]; 30 mg/kg PO QD): 227.15 mm^3
T/C ([1]; 30 mg/kg PO QD): 11.28%
TGI ([1]; 30 mg/kg PO QD): 94.23%
CLint(liver) ([2]; 1 μM): 436.1 mL/min/kg
CLint(mic) ([2]; 1 μM): 110 µL/min/mg
T1/2 ([2]; 1 μM): 12.6 min

C=C(F)C(=O)N1CCN(c2nc(OC[C@@]34CCCN3C[C@H](F)C4)nc3c2COC(c2c(F)c(N)cc(C)c2C(F)(F)F)C3)C[C@@H]1CC#N (stereo partly drawn) [Compound 17]
Average tumor volume ([1]; 10 mg/kg PO QD): 249.87 mm^3
T/C ([1]; 10 mg/kg PO QD): 12.39%
TGI ([1]; 10 mg/kg PO QD): 93.06%
Average tumor volume ([1]; 30 mg/kg PO QD): 124.14 mm^3
T/C ([1]; 30 mg/kg PO QD): 6.16%
TGI ([1]; 30 mg/kg PO QD): 99.64%
CLint(mic) ([2]; 1 μM): 285 µL/min/mg
CLint scaled at 1 μM ([2]; mouse): 1130 mL/min/kg
half-life at 1 μM ([2]; mouse): 4.9 min
